# Values of other authors, collected in patent publication US20220275055A1, “DRUG TARGET OF IDIOPATHIC PULMONARY FIBROSIS” (National Institute of Biological Sciences, Beijing, priority 2019, published 2022).
# Settings: idiopathic pulmonary fibrosis (IPF); background statement
row,Structure (SMILES),survival time
1,COC(=O)c1ccc2c(c1)NC(=O)/C2=C(\Nc1ccc(N(C)C(=O)CN2CCN(C)CC2)cc1)c1ccccc1 [nintedanib],failed to show significantly increased survival time
2,Cc1ccc(=O)n(-c2ccccc2)c1 [pirfenidone],failed to show significantly increased survival time
